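Results reflect a 48-hour exposure of cells in 96-well plates to compound at five concentrations. GI50 is the concentration that inhibits growth by half.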 Activity calls are given as the source filed them. No stated cut-off is given here; in the data, active = GI50 up to about 1.1 µM and inactive = higher.
Tests used:
Assay in all cases: DTP human tumour cell line panel, 48 h
A549 = test system: A549
DU-145 = test system: DU-145
HT-29 = test system: HT-29
Hs-578T = test system: Hs-578T
IGROV-1 = test system: IGROV-1
KM12 = test system: KM12
MDA-MB-231 = test system: MDA-MB-231
NCI-H460 = test system: NCI-H460
NCI/ADR-RES = test system: NCI/ADR-RES
PC-3 = test system: PC-3
RPMI-8226 = test system: RPMI-8226
SF-295 = test system: SF-295
SF-539 = test system: SF-539
SK-OV-3 = test system: SK-OV-3
SNB-19 = test system: SNB-19
UO-31 = test system: UO-31
HL-60 = test system: HL-60
NCI-H23 = test system: NCI-H23
RXF 393 = test system: RXF 393
T47D = test system: T47D

Row | Structure (SMILES) | GI50 (A549) | GI50 (DU-145) | GI50 (HT-29) | GI50 (Hs-578T) | GI50 (IGROV-1) | GI50 (KM12) | GI50 (MDA-MB-231) | GI50 (NCI-H460) | GI50 (NCI/ADR-RES) | GI50 (PC-3) | GI50 (RPMI-8226) | GI50 (SF-295) | GI50 (SF-539) | GI50 (SK-OV-3) | GI50 (SNB-19) | GI50 (UO-31) | GI50 (HL-60) | GI50 (NCI-H23) | GI50 (RXF 393) | GI50 (T47D)
1 | CC1=CC2=C(C#N)C(=O)OC2(C)C(c2ccccc2)C1 (configuration not stated) | > 100 µM (inactive) | > 100 µM (inactive) | > 100 µM (inactive) | > 100 µM (inactive) | 6.04 µM (inactive) | > 100 µM (inactive) | > 100 µM (inactive) | > 100 µM (inactive) | 72.1 µM (inactive) | 68.5 µM (inactive) | 77.8 µM (inactive) | > 100 µM (inactive) | > 100 µM (inactive) | > 100 µM (inactive) | > 100 µM (inactive) | > 100 µM (inactive) | – | – | – | –
2 | C=CCN1CC2CN=NC2(C#N)C1 (configuration not stated) | > 100 µM (inactive) | > 100 µM (inactive) | > 100 µM (inactive) | – | > 100 µM (inactive) | > 100 µM (inactive) | > 100 µM (inactive) | > 100 µM (inactive) | > 100 µM (inactive) | > 100 µM (inactive) | – | > 100 µM (inactive) | – | – | > 100 µM (inactive) | > 100 µM (inactive) | > 100 µM (inactive) | > 100 µM (inactive) | > 100 µM (inactive) | > 100 µM (inactive)
3 | CCn1c2ccccc2c2cc(Nc3cc(C)[nH]c(=O)n3)ccc21 | > 100 µM (inactive) | > 100 µM (inactive) | > 100 µM (inactive) | – | – | 5.7 µM (inactive) | > 100 µM (inactive) | > 100 µM (inactive) | > 100 µM (inactive) | > 100 µM (inactive) | – | 4.53 µM (inactive) | > 100 µM (inactive) | > 100 µM (inactive) | > 100 µM (inactive) | > 100 µM (inactive) | 0.255 µM (active) | > 100 µM (inactive) | > 100 µM (inactive) | > 100 µM (inactive)
4 | CCOC(=O)c1c(C)[nH]c2c1c(CN(C)C)c(O)c1nc(C)c(C)nc12 | 22.4 µM (inactive) | 26.2 µM (inactive) | 21.6 µM (inactive) | 22.8 µM (inactive) | 24.2 µM (inactive) | 28.2 µM (inactive) | – | 18.4 µM (inactive) | 24.2 µM (inactive) | 19.5 µM (inactive) | 18.5 µM (inactive) | 20.2 µM (inactive) | 18 µM (inactive) | 32.3 µM (inactive) | 31.1 µM (inactive) | 29.5 µM (inactive) | 8.09 µM (inactive) | 27.8 µM (inactive) | 20.8 µM (inactive) | 27 µM (inactive)
5 | C[C@@H]1CC[C@]2(C(=O)O)CC[C@]3(C)C(=CC[C@@H]4[C@@]5(C)CC[C@H](O)C(C)(C)[C@@H]5CC[C@]43C)[C@@H]2[C@]1(C)O [POMOLIC ACID] | 17.2 µM (inactive) | 8.97 µM (inactive) | – | 3.52 µM (inactive) | 16.5 µM (inactive) | 12.4 µM (inactive) | 8.79 µM (inactive) | 5.41 µM (inactive) | 15.5 µM (inactive) | – | 16.3 µM (inactive) | 3.22 µM (inactive) | 3.25 µM (inactive) | 17.9 µM (inactive) | 15.7 µM (inactive) | 11.3 µM (inactive) | 4.35 µM (inactive) | 18.7 µM (inactive) | – | 16.4 µM (inactive)
6 | Cc1ccc(S(=O)(=O)[C@@H](Cl)[C@H]2N=C(Cl)NN=C2c2ccccc2)cc1 | 34.1 µM (inactive) | 23.2 µM (inactive) | 33.5 µM (inactive) | – | 21.8 µM (inactive) | 22.6 µM (inactive) | 20.1 µM (inactive) | 37.1 µM (inactive) | 21.4 µM (inactive) | 16.7 µM (inactive) | 27.6 µM (inactive) | 41.4 µM (inactive) | 30.1 µM (inactive) | 32.6 µM (inactive) | 37.8 µM (inactive) | 18.1 µM (inactive) | – | 20.6 µM (inactive) | 18.6 µM (inactive) | 28.8 µM (inactive)
7 | Nc1nc(N)c2c(-c3ccccc3)ccnc2n1 | – | > 100 µM (inactive) | > 100 µM (inactive) | – | > 100 µM (inactive) | – | > 100 µM (inactive) | > 100 µM (inactive) | – | > 100 µM (inactive) | > 100 µM (inactive) | > 100 µM (inactive) | – | > 100 µM (inactive) | > 100 µM (inactive) | > 100 µM (inactive) | > 100 µM (inactive) | > 100 µM (inactive) | > 100 µM (inactive) | –
8 | NCC1CCCCC1.O=C(O)NCC1CCCCC1 | 30.1 µM (inactive) | 21.1 µM (inactive) | 19.3 µM (inactive) | – | 9.12 µM (inactive) | 12.1 µM (inactive) | 25.8 µM (inactive) | 13.4 µM (inactive) | 26 µM (inactive) | 17.7 µM (inactive) | 1.36 µM (inactive) | 19.1 µM (inactive) | – | – | 47.3 µM (inactive) | 33.6 µM (inactive) | 15.6 µM (inactive) | 23.3 µM (inactive) | 19.1 µM (inactive) | –
9 | Cc1nc(N)nc(S)c1CCC(=O)O | > 100 µM (inactive) | > 100 µM (inactive) | > 100 µM (inactive) | > 100 µM (inactive) | > 100 µM (inactive) | > 100 µM (inactive) | > 100 µM (inactive) | > 100 µM (inactive) | > 100 µM (inactive) | > 100 µM (inactive) | > 100 µM (inactive) | > 100 µM (inactive) | > 100 µM (inactive) | > 100 µM (inactive) | > 100 µM (inactive) | > 100 µM (inactive) | > 100 µM (inactive) | > 100 µM (inactive) | > 100 µM (inactive) | –
10 | Cc1n2nc(N)sc2n[n+]1CC(=O)c1ccccc1 | > 100 µM (inactive) | > 100 µM (inactive) | > 100 µM (inactive) | > 100 µM (inactive) | > 100 µM (inactive) | > 100 µM (inactive) | – | > 100 µM (inactive) | > 100 µM (inactive) | > 100 µM (inactive) | > 100 µM (inactive) | > 100 µM (inactive) | > 100 µM (inactive) | 24.3 µM (inactive) | > 100 µM (inactive) | > 100 µM (inactive) | – | > 100 µM (inactive) | > 100 µM (inactive) | > 100 µM (inactive)
11 | CN(C)C(=O)C(F)(F)C(c1ccc(F)cc1)C1C(=O)N(C)C(=O)N(C)C1=O (configuration not stated) | > 100 µM (inactive) | > 100 µM (inactive) | – | – | – | > 100 µM (inactive) | > 100 µM (inactive) | > 100 µM (inactive) | > 100 µM (inactive) | > 100 µM (inactive) | > 100 µM (inactive) | > 100 µM (inactive) | – | > 100 µM (inactive) | > 100 µM (inactive) | > 100 µM (inactive) | – | > 100 µM (inactive) | > 100 µM (inactive) | > 100 µM (inactive)
12 | Cc1ccc(NC(=O)C2C3CCC(O3)C2C(=O)O)cc1 (configuration not stated) | > 76.2 µM (inactive) | – | > 45 µM (inactive) | – | > 100 µM (inactive) | > 100 µM (inactive) | – | > 71.4 µM (inactive) | – | – | 39.6 µM (inactive) | > 95.9 µM (inactive) | > 57.7 µM (inactive) | > 83.9 µM (inactive) | > 100 µM (inactive) | > 100 µM (inactive) | > 40.2 µM (inactive) | > 100 µM (inactive) | 15.8 µM (inactive) | –
13 | Cc1cc2cc3ccccc3cc2c(=O)[nH]1 | > 10 µM (inactive) | > 10 µM (inactive) | > 10 µM (inactive) | > 10 µM (inactive) | > 10 µM (inactive) | > 10 µM (inactive) | – | > 10 µM (inactive) | – | > 10 µM (inactive) | – | > 10 µM (inactive) | > 10 µM (inactive) | > 10 µM (inactive) | > 10 µM (inactive) | > 10 µM (inactive) | > 10 µM (inactive) | > 10 µM (inactive) | > 10 µM (inactive) | –
14 | CC(=O)N1C(=O)C(=O)c2cc(Cl)ccc21 | > 100 µM (inactive) | – | > 100 µM (inactive) | – | > 100 µM (inactive) | > 100 µM (inactive) | – | > 100 µM (inactive) | – | – | > 100 µM (inactive) | > 100 µM (inactive) | > 100 µM (inactive) | > 100 µM (inactive) | > 100 µM (inactive) | > 100 µM (inactive) | > 100 µM (inactive) | > 100 µM (inactive) | > 100 µM (inactive) | –
15 | NNC(=S)N1CCN(C(=S)NN)CC1 | > 100 µM (inactive) | > 100 µM (inactive) | > 100 µM (inactive) | > 100 µM (inactive) | 43.4 µM (inactive) | > 100 µM (inactive) | > 100 µM (inactive) | > 100 µM (inactive) | – | > 100 µM (inactive) | > 100 µM (inactive) | > 100 µM (inactive) | – | > 100 µM (inactive) | > 100 µM (inactive) | > 100 µM (inactive) | 32.4 µM (inactive) | > 100 µM (inactive) | – | > 100 µM (inactive)
16 | Cc1sc2nc3n(c(=O)c2c1C)N=CN(c1ccccc1)C3 | > 100 µM (inactive) | > 100 µM (inactive) | > 100 µM (inactive) | – | > 100 µM (inactive) | > 100 µM (inactive) | 68.1 µM (inactive) | > 100 µM (inactive) | > 100 µM (inactive) | > 100 µM (inactive) | > 100 µM (inactive) | 84.9 µM (inactive) | – | > 100 µM (inactive) | 35.5 µM (inactive) | > 100 µM (inactive) | – | > 100 µM (inactive) | 37.1 µM (inactive) | 79.8 µM (inactive)
17 | COc1nc(OC)nc(Sc2ccc(Sc3ccc(Sc4nc(OC)nc(OC)n4)cc3)cc2)n1 | > 100 µM (inactive) | – | > 100 µM (inactive) | – | > 100 µM (inactive) | > 100 µM (inactive) | – | > 100 µM (inactive) | – | – | > 100 µM (inactive) | > 100 µM (inactive) | > 100 µM (inactive) | > 100 µM (inactive) | > 100 µM (inactive) | > 100 µM (inactive) | > 100 µM (inactive) | > 100 µM (inactive) | > 100 µM (inactive) | –
